Assays:
[1] = tested on: Human RL B-lymphoma cells; assay: Human RL B-lymphoma cells in SCID mice; format: in vivo; settings: expected
Description: Human RL B-lymphoma cells (Beckwith et al. (1990) J. Nat. Cancer Inst. 82, 501) are maintained in vitro by passage in growth medium. The cells are washed thoroughly in PBS to remove culture components. SCID mice are injected with one million human lymphoma cells via the tail vein in 100 microliters (μl). 24-hydroxylase inhibitor treatment is initiated the following day by daily intraperitoneal (i.p.) injection of 3 mg/kg 24-hydroxylase inhibitor (VID400), alone or in combination with doxorubicin at 5 mg/kg, or vehicle. Mice are monitored for survival and significant morbidity. […] Depending on the lymphoma cell line employed, the untreated mice typically die within 3 to 6 weeks.

[2] = tested on: C57BL6 murine ID8 ovarian carcinoma cell line; assay: Mouse syngeneic model of ovarian carcinoma (ID8 VEGF164/GFP); format: in vivo, C57BL6 mice; settings: expected; for tumor growth delay compared with vehicle control: single agent (inhibitor 2 mg/kg; cisplatin 2 or 6 mg/kg)
Description: The efficacy of a 24-hydroxylase inhibitor, alone or in combination with a chemotherapeutic agent is tested in a mouse syngeneic model of ovarian carcinoma using methods as described in Zhang et al., (Am. J. of Pathol. (2002) 161:2295-2309). Briefly, using retroviral transfection and fluorescence-activated cell sorting, a C57BL6 murine ID8 ovarian carcinoma cell line is generated that stably overexpresses the murine VEGF164 isoform and the enhanced green fluorescence protein (GFP). The retroviral construct containing VEGF164 and GFP cDNAs is then transfected into BOSC23 cells. The cells are analyzed by FACS cell sorting, and cells showing high GFP fluorescence are identified and isolated. The ID8 VEGF164/GFP transfected cells are cultured to subconfluence and prepared in a single-cell suspension in phosphate buffer saline (PBS) and cold […] (BD Biosciences, Bedford, Mass.). Six to eight week old female C57BL6 mice are injected subcutaneously in the flank with 5×10^6 transfected or untransfected (control) cells. Animals are sacrificed eight weeks after inoculation and evaluated for tumor growth. Mice are treated with a 24-hydroxylase inhibitor (VID 400/RC-8800) beginning 3-14 days following tumor implantation. Mice are treated in the following groups, with 5 mice for each group:
The agents are administered on a daily basis for 14 days. Animals are monitored daily for body weight, and significant morbidity.

24-hydroxylase (CYP24) = target: T1, 24-hydroxylase (CYP24) (Homo sapiens, UniProt Q07973); settings: identified by Schuster et al., J. Cell. Biochem. 88:372-380 (2003); cited from earlier work
T1 construct: confluent cultures of human keratinocytes are isolated from adult skin in serum-free keratinocyte growth medium; endogenous in cells; host or cells: primary human keratinocytes from adult skin
T1 sequence (Q07973 36-514): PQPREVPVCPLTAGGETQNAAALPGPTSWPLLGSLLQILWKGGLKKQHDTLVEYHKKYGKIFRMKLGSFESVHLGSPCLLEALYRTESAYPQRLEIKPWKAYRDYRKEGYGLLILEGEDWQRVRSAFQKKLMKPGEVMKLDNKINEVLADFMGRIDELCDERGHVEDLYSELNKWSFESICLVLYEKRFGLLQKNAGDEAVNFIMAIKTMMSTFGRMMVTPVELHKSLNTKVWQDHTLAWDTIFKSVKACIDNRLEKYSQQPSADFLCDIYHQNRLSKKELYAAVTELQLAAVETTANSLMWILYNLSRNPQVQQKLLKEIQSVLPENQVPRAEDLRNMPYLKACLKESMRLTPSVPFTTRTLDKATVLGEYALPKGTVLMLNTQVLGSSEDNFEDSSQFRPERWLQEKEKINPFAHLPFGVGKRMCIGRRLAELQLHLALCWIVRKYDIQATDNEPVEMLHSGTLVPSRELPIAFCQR

24-hydroxylase = target: T2, 24-hydroxylase (Homo sapiens, UniProt Q07973); settings: described by Kahraman et al., J. Med. Chem. 47:6854-6863 (2004); cited from earlier work
T2 sequence (Q07973 36-514): T1 sequence (Q07973 36-514)

SMILES: COc1cccc2c1C(=O)c1c(O)c3c(c(O)c1C2=O)C[C@@](O)(C(=O)CO)C[C@@H]3O[C@H]1C[C@H](N)[C@H](O)[C@H](C)O1 [doxorubicin, reference compound]
- inhibition in tumor growth ([1]; doxorubicin 5 mg/kg alone, SCID mice, RL B-lymphoma): significant inhibition

SMILES: O=C(NC[C@@H](c1ccccc1)n1ccnc1)c1ccc(-c2ccc(Cl)cc2)cc1 [(R)-VID400, 2-(R)-4′-Chlorobiphenyl-4-carboxylic acid (2-imidazol-1-yl-2-phenyl-ethyl)-amide]
- inhibition in tumor growth ([1]; VID400 3 mg/kg i.p. daily in combination with doxorubicin 5 mg/kg): highest growth inhibition
- tumor growth delay ([2]; 24-hydroxylase inhibitor 2 mg/kg + cisplatin 2 or 6 mg/kg, daily for 14 days, vs cisplatin alone at same dosage or inhibitor alone): delay longer than cisplatin alone
- body weight ([2]; 24-hydroxylase inhibitor 2 mg/kg + cisplatin, vs vehicle or single therapy controls of same dosage): maintain body weight significantly more
- tumor growth delay compared with vehicle control ([2]; daily for 14 days): significant delay
- inhibition of 24-hydroxylase (24-hydroxylase (CYP24)): potent inhibitors

SMILES: C=C1/C(=C\C=C2/CCCC3(C)C2CC[C@@H]3[C@H](C)CCS(=N)(=O)c2ccc(F)cc2)C[C@@H](O)C[C@@H]1O (stereo partly drawn) [Formula VI]
- potency as 24-hydroxylase inhibitor (structure activity relationships) (24-hydroxylase): slightly less potent

SMILES: C=C1/C(=C\C=C2/CCCC3(C)C2CC[C@@H]3[C@H](C)CCS(=N)(=O)c2ccccc2)C[C@@H](O)C[C@@H]1O (stereo partly drawn) [Formula V]
- potency as 24-hydroxylase inhibitor (structure activity relationships) (24-hydroxylase): most potent

SMILES: N.N.[Cl][Pt][Cl] [Cisplatin, reference compound]
- tumor growth delay compared with vehicle control ([2]; daily for 14 days): significant delay

Source: patent publication US20060078494A1, “Use of inhibitors of 24-hydroxylase in the treatment of cancer” (Sapphire Therapeutics, Inc., priority 2004, published 2006)
